Data on five compounds can be found in article PMC10751319, “Bacterial extracellular vesicles: towards realistic models for bacterial membranes in molecular interaction studies by surface plasmon resonance” (Frontiers in Molecular Biosciences, 2023).

Converted amounts (≈) assume the structure as drawn. Where two headings read alike, the source gives them in different places. Non-standard residues stand in square brackets, D forms with d. Residues, ends and D or L forms follow the SMILES beside them.

Assay [1] relates to K. pneumoniae K47-25. It is filed as cell-based, Klebsiella pneumoniae. As to the method:
(§1) MIC for all test peptides was determined following EUCAST clinical standard ([Hasselmann, 2003]). Briefly, 3–4 colonies were picked by a cotton swab from freshly plated cultures on agar and resuspended in sterile saline solution. Turbidity of inoculum was adjusted to 0.5 McFarland standard units prior to ×100 dilution in Mueller-Hinton broth. Antimicrobial peptides were dissolved in the broth at the stock concentration of 512 μg/mL. […] Positive control of bacterial culture diluted with broth and negative control of blank broth were included for each bacterial strain. The MICs were determined after incubation of the plates at 37°C for 18 h and red as the concentration of antimicrobial peptide at the next to the last well where bacterial growth was detected.

The subject of assay [2] is bEVs from K. pneumoniae. In words: SPR interaction with immobilized bEVs. Conditions: for koff rate constant determined by SPR / Calculated kon rate constant: K. pneumoniae bEVs; for koff rate constant determined by SPR: 400 s dissociation phase, Figueira et al. 2017 formalism, 25°C; for koff rate constant determined by SPR / Kd: three parallels; for Calculated kon rate constant: calculated from KD and koff (KD=koff/kon); for Kd: read-out: Dissociation constant KD determined by SPR, K. pneumoniae bEVs on L1 chip, Biacore T200, 25°C, 10 mM HEPES, 150 mM NaCl, steady-state fit.
Text: (§2) By this, the dissociation constant KD and the disassociation rate koff were obtained. These constants allowed us to calculate kon rate, using Eq. 4.

Assay [3] has as its system bEVs from P. aeruginosa. In words: SPR interaction with immobilized bEVs. Conditions: for koff rate constant determined by SPR / Calculated kon rate constant: P. aeruginosa bEVs; for koff rate constant determined by SPR: 400 s dissociation phase, Figueira et al. 2017 formalism, 25°C; for koff rate constant determined by SPR / Kd: three parallels; for Calculated kon rate constant: calculated from KD and koff (KD=koff/kon); for Kd: read-out: Dissociation constant KD determined by SPR, P. aeruginosa bEVs on L1 chip, Biacore T200, 25°C, 10 mM HEPES, 150 mM NaCl, steady-state fit.
Text: as §2

The test system of assay [4] is E. coli ΔtolA JW0729-KC. Type of assay: cell-based, Escherichia coli. Conditions: Mueller-Hinton broth, 256 to 2 μg/mL, 37°C, 18 h. As to the method: as §1
The test system of assay [5] is liposomes prepared from E. coli ΔtolA lipid isolate. The assay can be described thus: SPR interaction with immobilized liposomes. Conditions: for koff rate constant determined by SPR / Calculated kon rate constant: Liposomes from E. coli ΔtolA lipid isolate; for koff rate constant determined by SPR: 400 s dissociation phase, Figueira et al. 2017 formalism, 25°C; for koff rate constant determined by SPR / Kd: three parallels; for Calculated kon rate constant: calculated from KD and koff (KD=koff/kon); for Kd: read-out: Dissociation constant KD determined by SPR, Liposomes from E. coli ΔtolA lipid isolate on L1 chip, Biacore T200, 25°C, 10 mM HEPES, 150 mM NaCl, steady-state fit.
Text: as §2

Assay [6] relates to bEVs from E. coli ΔtolA. Conditions: for koff rate constant determined by SPR / Calculated kon rate constant: E. coli ΔtolA bEVs; for koff rate constant determined by SPR: 400 s dissociation phase, Figueira et al. 2017 formalism, 25°C; for koff rate constant determined by SPR / Kd: three parallels; for Calculated kon rate constant: calculated from KD and koff (KD=koff/kon); for Kd: read-out: Dissociation constant KD determined by SPR, E. coli ΔtolA bEVs on L1 chip, Biacore T200, 25°C, 10 mM HEPES, 150 mM NaCl, steady-state fit.
Text: as §2

Assay [7] concerns A. baumannii K47-42. It is filed as cell-based, Acinetobacter baumannii. As to the method: as §1
Assay [8] relates to bEVs from A. baumannii. The assay can be described thus: SPR interaction with immobilized bEVs. Conditions: for koff rate constant determined by SPR / Calculated kon rate constant: A. baumannii bEVs; for koff rate constant determined by SPR: 400 s dissociation phase, Figueira et al. 2017 formalism, 25°C; for koff rate constant determined by SPR / Kd: three parallels; for Calculated kon rate constant: calculated from KD and koff (KD=koff/kon); for Kd: read-out: Dissociation constant KD determined by SPR, A. baumannii bEVs on L1 chip, Biacore T200, 25°C, 10 mM HEPES, 150 mM NaCl, steady-state fit.
Text: as §2

Assay [9] has as its system P. aeruginosa K34-7. Type of assay: cell-based, Pseudomonas aeruginosa. How it is done: as §1
The conditions of assay [10]: strain not stated; ref Junkes et al., 2008; Bagheri, 2010; Gopal et al., 2012; Finger et al., 2015; Rainsford et al., 2022; Jakubec et al., 2023; cited from earlier work.
The mark [11] stands for this setting: K. pneumoniae K47-25, clinical multi-resistant, Mueller-Hinton broth, 256 to 2 μg/mL, 37°C, 18 h.
Where [12] appears, read: P. aeruginosa K34-7, clinical multi-resistant, Mueller-Hinton broth, 256 to 2 μg/mL, 37°C, 18 h.
The mark [13] stands for this setting: A. baumannii K47-42, clinical multi-resistant, Mueller-Hinton broth, 256 to 2 μg/mL, 37°C, 18 h.

The MIC is the smallest concentration in the dilution series that meets the test's criterion for growth inhibition. Read a high MIC as weaker potency. What is called Kd is the free concentration of one partner at which half of the binding sites on the other are occupied at equilibrium, for simple one-to-one binding. Consider `NCCCC[C@@H]1NC(=O)[C@H](CCCCN)NC(=O)[C@H](Cc2c[nH]c3ccccc23)NC(=O)[C@H](Cc2c[nH]c3ccccc23)NC(=O)[C@H](Cc2c[nH]c3ccccc23)NC(=O)[C@H](CCCCN)NC1=O` [c-WWWKKK] (cyclo(WWWKKK)), for which the minimum inhibitory concentration (MIC) in assay [1] (K47-25, 18 h) was over 256 µg/mL; in assay [4], 4 µg/mL (≈ 4.24 µM); in [7] (K47-42, 18 h) it was over 256 µg/mL. In addition, the “koff rate constant determined by SPR” value in assay [2] was found to be 0.37 ± 0.03 s⁻¹; in [3], 0.62 ± 0.07 s⁻¹; in assay [5] it was 0.21 ± 0.01 s⁻¹; in [6] it was 0.62 ± 0.05 s⁻¹; in assay [8] it was 0.63 ± 0.12 s⁻¹. Besides, the “Calculated kon rate constant” value in assay [2] is 18000 ± 1000 M⁻¹ s⁻¹; in assay [3] it was 6000 ± 1000 M⁻¹ s⁻¹; in assay [5], 7000 ± 1000 M⁻¹ s⁻¹; in assay [6] it was 11000 ± 1000 M⁻¹ s⁻¹; in assay [8], 6000 ± 2000 M⁻¹ s⁻¹. Further, the Kd in [2] worked out at 21 ± 0.7 µM; in assay [3], 100 ± 4.1 µM; in assay [5], 28.3 ± 4.2 µM; in assay [6] it was 56.5 ± 1 µM; in assay [8], 100 ± 13.1 µM.
For `CC(C)C[C@@H]1NC(=O)[C@@H](CCCNC(=N)N)NC(=O)[C@H](CCCCN)NC(=O)[C@H](CC(N)=O)NC(=O)[C@@H](Cc2c[nH]c3ccccc23)NC(=O)[C@H](Cc2c[nH]c3ccccc23)NC1=O` [c-LWwNKr, reference compound] (cyclo(LW[dW]NK[dR])), the minimum inhibitory concentration (MIC) in [1] (setting [11]), in [4], in assay [9] (setting [12]) and in [7] (setting [13]) was over 256 µg/mL throughout. Moreover, the “koff rate constant determined by SPR” value in assay [2] was found to be 1.75 ± 0.55 s⁻¹; in assay [3], 1.78 ± 0.54 s⁻¹; in assay [5] it was 1.67 ± 0.45 s⁻¹; in assay [6], 1.42 ± 0.27 s⁻¹; in assay [8], 1.72 ± 0.45 s⁻¹. The equilibrium dissociation constant (Kd) in assay [2] was determined as 1080 ± 49 µM; in [3] it was 1040 ± 270 µM; in assay [5], 966 ± 170 µM; in assay [6], 406 ± 38.1 µM; in [8], 858 ± 61.4 µM. Further, the “Calculated kon rate constant” value was 2000 ± 1000 M⁻¹ s⁻¹ in [5] and 3000 ± 1000 M⁻¹ s⁻¹ in assay [6]. Moreover, the “MIC (without antimicrobial activity)” value in [10] was over 256 µg/mL.
`NCCCC[C@@H]1NC(=O)[C@H](Cc2c[nH]c3ccccc23)NC(=O)[C@H](CCCCN)NC(=O)[C@H](Cc2c[nH]c3ccccc23)NC(=O)[C@H](CCCCN)NC(=O)[C@H](Cc2c[nH]c3ccccc23)NC1=O` [c-WKWKWK] (cyclo(WKWKWK)): the MIC in assay [1] (setting [11]) was over 256 µg/mL; in assay [4], 256 µg/mL (≈ 271 µM); in [9] (setting [12]), over 256 µg/mL; in assay [7] (setting [13]), over 256 µg/mL. The “koff rate constant determined by SPR” value came to 1.51 ± 0.54 s⁻¹ in [2]; 1.52 ± 0.37 s⁻¹ in assay [3]; 0.95 ± 0.20 s⁻¹ in assay [5]; 1.42 ± 0.16 s⁻¹ in assay [6]; 0.82 ± 0.11 s⁻¹ in assay [8]. Besides, the “Calculated kon rate constant” value is 2000 ± 1000 M⁻¹ s⁻¹ in assay [2]; 2000 ± 1000 M⁻¹ s⁻¹ in [3]; 4000 ± 1000 M⁻¹ s⁻¹ in assay [5]; 4000 ± 1000 M⁻¹ s⁻¹ in assay [6]; 2000 ± 1000 M⁻¹ s⁻¹ in assay [8]. The Kd in assay [2] came out at 694 ± 37.3 µM; in assay [3], 749 ± 117 µM; in assay [5], 244 ± 39.5 µM; in assay [6], 381 ± 22.6 µM; in assay [8] it was 389 ± 32.5 µM.
With `N=C(N)NCCC[C@@H]1NC(=O)[C@H](CCCNC(=N)N)NC(=O)[C@H](Cc2c[nH]c3ccccc23)NC(=O)[C@H](Cc2c[nH]c3ccccc23)NC(=O)[C@H](Cc2c[nH]c3ccccc23)NC(=O)[C@H](CCCNC(=N)N)NC1=O` [c-WWWRRR] (cyclo(WWWRRR)), the MIC is 256 µg/mL (≈ 249 µM) in [1] (K47-25, 18 h); 4 µg/mL (≈ 3.89 µM) in assay [4]; over 256 µg/mL in [7] (K47-42, 18 h). The “koff rate constant determined by SPR” value in assay [2] amounted to 0.28 ± 0.01 s⁻¹; in assay [3], 0.37 ± 0.04 s⁻¹; in assay [5], 0.51 ± 0.08 s⁻¹; in assay [6], 0.18 ± 0.02 s⁻¹; in assay [8] it was 0.40 ± 0.06 s⁻¹. In addition, the “Calculated kon rate constant” value in assay [2] was 8000 ± 1000 M⁻¹ s⁻¹; in [3] it was 6000 ± 1000 M⁻¹ s⁻¹; in [5] it was 11000 ± 1000 M⁻¹ s⁻¹; in assay [6] it was 7000 ± 1000 M⁻¹ s⁻¹; in [8] it was 8000 ± 2000 M⁻¹ s⁻¹. Besides, the dissociation constant (Kd) in assay [2] is 35.8 ± 1.3 µM; in assay [3], 59 ± 2.6 µM; in assay [5] it was 47.8 ± 5.2 µM; in assay [6], 27 ± 1.6 µM; in assay [8], 48.7 ± 2.7 µM.
Regarding `N=C(N)NCCC[C@@H]1NC(=O)[C@H](Cc2c[nH]c3ccccc23)NC(=O)[C@H](CCCNC(=N)N)NC(=O)[C@H](Cc2c[nH]c3ccccc23)NC(=O)[C@H](CCCNC(=N)N)NC(=O)[C@H](Cc2c[nH]c3ccccc23)NC1=O` [c-WRWRWR] (cyclo(WRWRWR)), the MIC in [1] (K47-25, 18 h) was over 256 µg/mL; in [4], 128 µg/mL (≈ 125 µM); in assay [9] (K34-7, 18 h), over 256 µg/mL; in assay [7] (K47-42, 18 h), over 256 µg/mL.
